These results are taken from patent US9351494B2, “Honeybee repellents and uses thereof” (Inscent, Inc., priority 2013, dated 2016).

Series [1] concerns Apis mellifera Carniolan foraging worker honeybees. Nature of the series: proboscis extension response (PER) assay with bees conditioned to 2-heptanone. The class given is in vivo. To be noted: for 2-heptanone positive bees testing positive to compound: PER, compound 0.5% on filter paper, 4 seconds exposure, only bees giving a PER with 2-heptanone but not with negative controls counted. The protocol: To determine whether a living honeybee can recognize a candidate compound, these compounds were tested using a proboscis extension response (PER) assay using classical conditioning approaches. Proboscis extension response conditioning is a case of appetitive learning, in which bees learn to associate odor stimuli with sucrose reward in the laboratory. In this case, bees were conditioned to produce a PER to 2-heptanone as the conditioned stimulus and a sugar reward as the unconditioned stimulus. These trained bees were then exposed to an odor pulse of a candidate compound to test whether a candidate compound would also produce a PER. If the candidate compound “mimics” 2-heptanone then the honeybee will extend its proboscis. For conditioning procedures, Apis mellifera Carniolan foraging worker honeybees were obtained from a local apiary (typically 60 bees per shipment). The honeybees were held overnight in insect cages with food and water freely available, in an environmentally controlled room on a light cycle similar to the ambient cycle at the time of the assay. For conditioning procedures, all tests were done in an odorant delivery apparatus set inside a fume hood. The apparatus comprised a set of open-ended, horizontal, 3 cm diameter by 10 cm long plastic tubes. Each tube was designed where a honeybee could be positioned at the distal end of a tube, with the opening at the other end of the tube located proximal to an inlet of the fume hood. To deliver an odorant, room air was pumped by a diaphragm pump through a particle filter via 0.25 inch plastic tubing at approximately 0.7 m/sec. The air flow passes into the headspace above an odorant (0.5% [v/v]2-heptanone dissolved in odorless light paraffin oil) contained in a 100 mL bottle. The headspace air then passes through another plastic tube to a manifold of 4-way valves, each of which was attached near the proximal end of a plastic tube containing a bee. Each bee was exposed separately for a desired time period to the odorant by opening and closing the appropriate valve. When each valve was closed, the odor was flushed away immediately by the continuous fume hood air stream. To train a honeybee to respond to a conditioned and unconditioned stimuli, bees were placed, without anesthesia, in individual 1.5 mL micro-centrifuge holding tubes and held overnight without access to food or water. The holding tubes containing the starved bees were placed in racks in groups of eight. One rack at a time was placed behind the odorant delivery apparatus so that each bee's head is centered at the distal end of a horizontal plastic tube. Each bee was exposed to the 2-heptanone odorant alone for four seconds, and then while being fed an 80% sucrose solution for and additional three seconds. The sucrose solution was delivered on a piece of saturated filter paper held in forceps. […] Positive and negative responses were recorded. A positive PER was scored when a bee extended its proboscis before the sucrose appeared. In a typical trial, 48 individual bees were subjected to conditioning. Six rounds of training were done before testing began, and typically a majority of the bees were successfully conditioned by the second or third round of training. After conditioning, honeybees were tested with the candidate compounds the same day or on the following day or, most commonly, both. When held overnight, bees were fed with sucrose and kept in their holding tubes. When tested the day after training, bees were given one or more rounds of conditioning with 2-heptatone to refresh their memories. Candidate compounds stocks were made at 5% (w/v) in polyoxyethylene octyl phenyl ether (TRITON® X-100), a non-ionic detergent/surfactant, and stored at 4° C. This detergent is similar to substances used as carriers for a variety of commercial pest-control agents, can act as a solvent for both hydrophilic and hydrophobic substances, and is itself nearly odorless. […]

For the next series, the system named is OBP2. The series is described as follows: fluorescent-quench, ligand-protein-binding assay (OBP2 binding). Also on record: species or system Apis mellifera. From the text:
To identify a honeybee repellent disclosed herein, candidate compounds were screened based upon the fact that 2-heptanone is an established repellent of bees. 2-heptanone is thought to mediate its behavioral response through binding to a specific odorant-binding protein called OBP2. Therefore compounds that bind OBP2 have the potential to act as odor “mimics” of 2-heptanone. By utilizing a fluorescent-quench, ligand-protein-binding assay, 30,000 compounds from the […]® library (ChemBridge Corp., San Diego, Calif.), a chemical library, were screened and over 150 candidate compounds were isolated that bind OBP2 (Table 1). Such assays are generally known in the art. See, e.g., Briand, et al., Ligand-Binding Properties and Structural Characterization of a Novel Rat Odorant-Binding Protein Variant, Eur. J. Biochem. 267(10): 3079-3089 (2000); Briand, et al., Ligand Binding and Physico-Chemical Properties of ASP2, A Recombinant Odorant-Binding Protein From Honeybee (Apis mellifera L.), Eur. J. Biochem. 268(3): 752-760 (2001); Briand, et al., Characterization of a Chemosensory Protein (ASP3c) from Honeybee (Apis mellifera L.) as a Brood Pheromone Carrier, Eur. J. Biochem. 269(18): 4586-4596 (2002), each of which is hereby incorporated by reference in its entirety.

The subject of series [2] is Apis mellifera Carniolan foraging worker honeybees. The series is described as follows: choice test in a free-flight box apparatus. Format: in vivo. Conditions: for Z-score: Z-test (alpha=10%) versus control likelihood 47.5%, critical Z-score 1.282, positive value attractant, negative repellant; for nP (number of tests a honeybee returned to a preferred test dish): candidate compound 0.05-0.5% on filter paper below honey dish, out of n total tests; for P (probability that a honeybee will return to a test dish, nP/n): compared to control likelihood of 47.5% without compound. From the text:
To determine whether living honeybees will choice to move towards a source of a candidate compound, these compounds will be assayed using a choice test in a free-flight box apparatus.
All tests will be done in a free-flight box apparatus. The apparatus comprises a 244 cm long×46 cm deep×30 cm high clear plastic box including two equally-sized independent testing chambers, each with 10 cm diameter air inlets that admit filtered room air, separated by a smaller central chamber with a screened air outlet to each testing chamber. Air can be pulled through the sealed box via a 10 cm diameter duct from the air outlet using an AQE Fume Fighter 500 fume extractor (BPA Air Quality Solutions, LLC, Charleston, S.C.), which removes the test odors using activated charcoal and HEPA filters. The box is housed in an environmentally controlled room with overhead illumination timed to correspond to the current ambient light cycle including 2 additional sets of lights timed to approximate crepuscular lighting conditions. The bottom of the apparatus will be lined with clean absorbent paper marked with a 4×9 grid pattern, forming 12 cm×12 cm squares with marked coordinates.
Apis mellifera Carniolan foraging worker honeybees will be obtained from a local apiary (typically 60 bees per shipment). Thirty honeybees will be put into each testing chamber and will be allowed to acclimate for 24 hours with food and water freely available. At the beginning of each test day all food will be removed from the test chamber, but water will be continually available throughout all tests. For each test, approximately 0.3 g of organic, raw orange blossom honey will be added to each clean small plastic weigh boat (Cole-Palmer). The honey boats will be placed in small plastic culture dishes, which will be distributed in the marked squares in the chambers. The positions of the dishes on the grid for a set of trials was chosen to avoid bees' preferred resting area so that they will have to find the food actively, but the same dish positions will be maintained for a given set of trials. We will use seven dishes of honey: six to which the bees will have access and a seventh that will have a screened lid. The honey in each boat was weighed on an analytical balance before and after the test, with the screened sample as a control for evaporative loss. The fume extractor was left off during the experimental trails, and was turned on to clear the air after the test dishes were covered and removed from the chamber at the end of each trial.
Based on the observation that bees tend to return to dishes in the same position where they have fed before, each set of trials with each group of bees began with “Pattern Identification” tests to see which dishes lose the most weight, reflecting the most feeding. Once bees are consuming an acceptable amount in 10-15 min, typically in 1-2 trials, a set of test compound trials will begin. The test compound will be pipetted onto pieces of filter paper placed on the dish bottom below the boat containing a fresh, weighed honey sample so that the test compound will be inaccessible to the bees. We used 2 μL of a candidate compound at a concentration of 0.05-0.5%, in Triton X-100 or paraffin oil, on each of four pieces of filter paper per dish. The test-solution dishes will be set at the same positions as the one or two dishes favored in the preceding Pattern Identification trial. To eliminate interference from the solvent, the other dishes without the test substance will contain the same volume of the appropriate solvent on filter papers as the test solution dishes. The bees will be allowed to feed for 10-15 minutes. Bee movements will be recorded by a small, wide-angle digital video camcorder (HD Hero 960; GoPro, Halfmoon Bay, Calif.) placed on a tripod in front of the test chamber. […]

For series [3] the following is noted: cited from earlier work.

Regarding `Nc1c(C(=O)c2ccccc2)sc2nc(-c3ccccc3)ccc12` [Candidate Compound 76, (3-amino-6-phenylthieno[2,3-b]pyridin-2-yl)(phenyl)methanone], the “2-heptanone positive bees testing positive to compound” value in series [1] is reported as 11.9%. Also, in the series on OBP2, the “OBP2 binding characteristic of compound” value is “Moderate (Moderate, indicates that 50% or less of the compound bound to OBP2.)”.

With `CCOC(=O)c1c(NC(=O)C(C)(C)C)sc2c1CCCC2` [Candidate Compound 69, ethyl 2-[(2,2-dimethylpropanoyl)amino]-4,5,6,7-tetrahydro-1-benzothiophene-3-carboxylate], the “2-heptanone positive bees testing positive to compound” value in series [1] stood at 6.5%. The “OBP2 binding characteristic of compound” value with OBP2 was “Moderate (Moderate, indicates that 50% or less of the compound bound to OBP2.)”.

For `O=C(NC(=S)N1CCCc2ccccc21)c1ccccc1` [Candidate Compound 62, N-(3,4-dihydro-1(2H)-quinolinylcarbonothioyl)benzamide], the “2-heptanone positive bees testing positive to compound” value in series [1] was found to be 23.6%. In the series with OBP2, the “OBP2 binding characteristic of compound” value is on record as “Moderate (Moderate, indicates that 50% or less of the compound bound to OBP2.)”.

With `CCOc1cc(C)nc(-c2ccccc2O)n1` [Candidate Compound 64, 2-(4-ethoxy-6-methyl-2-pyrimidinyl)phenol], in series [2], the Z-score was −3.043; the “nP (number of tests a honeybee returned to a preferred test dish)” value was determined as 16; the “P (probability that a honeybee will return to a test dish, nP/n)” value came to 0.276. The “2-heptanone positive bees testing positive to compound” value in series [1] is given as 21.7%. In addition, in the series with OBP2, the “OBP2 binding characteristic of compound” value is “Moderate (Moderate, indicates that 50% or less of the compound bound to OBP2.)”.

Turning to `CCCCCC(C)=O` [2-heptanone, 2-Heptanone], in series [3] (alcohol or ether), the “solubility in alcohol or ether” value is on record as “soluble”. Also, the solubility in water result in series [3] (water) was “very slightly soluble”. Moreover, in series [1] (0.5% 2-heptanone in paraffin oil), the “total bees subjected to conditioning that exhibited a PER with the 2-heptanone positive control” value is recorded as “about half”.

As to `COc1ccc(C2SCC(=O)N2CCc2ccccc2)cc1` (centres unmarked) [Candidate Compound 63, 2-(4-methoxyphenyl)-3-(2-phenylethyl)-1,3-thiazolidin-4-one], in series [2], the Z-score is given as 0.394; the “nP (number of tests a honeybee returned to a preferred test dish)” value turned out to be 32; the “P (probability that a honeybee will return to a test dish, nP/n)” value amounted to 0.5. Moreover, the “2-heptanone positive bees testing positive to compound” value in series [1] is on record as 21.4%. The “OBP2 binding characteristic of compound” value with OBP2 is recorded as “Moderate (Moderate, indicates that 50% or less of the compound bound to OBP2.)”.

Take `C=CCOc1cc(C)nc(-c2ccccc2O)n1` [Candidate Compound 104, 2-[4-(allyloxy)-6-methyl-2-pyrimidinyl]phenol]: in series [1], the “2-heptanone positive bees testing positive to compound” value is on record as 27.9%. Moreover, the “OBP2 binding characteristic of compound” value with OBP2 is “Moderate (Moderate, indicates that 50% or less of the compound bound to OBP2.)”.

On to `COc1ccc(CCC(C)NN2CCOCC2)cc1` (centres unmarked) [Candidate Compound 65, N-[3-(4-methoxyphenyl)-1-methylpropyl]-4-morpholinamine], for which the “2-heptanone positive bees testing positive to compound” value in series [1] is 7.6%. Besides, in the series with OBP2, the “OBP2 binding characteristic of compound” value is on record as “Moderate (Moderate, indicates that 50% or less of the compound bound to OBP2.)”.
